Test results as given in patent US12215118B2, “Quinone methide analog signal amplification” (Ventana Medical Systems, Inc., priority 2014, dated 2025).
Blank lines part the entries; values can stand above or below the compound they belong to.

Key:
[1] = system: Ki67 on FFPE tonsil tissue; test: HRP DAB amplified by QMP-biotin with various leaving groups; settings: CHES pH 10.0, ultraView DAB control; for signal resolution and intensity compared to the control slide: monofluoro 400 nM, acetate and methoxy 100 μM; for staining intensity and signal diffusion compared to the control slide: quaternary amine leaving groups, 100 μM
Method: (b) Quinone methide analog precursor amplified DAB (FIGS. 21(B)-(D)). The tissue was deparaffinized and retrieved as described in the general procedures. Rabbit-anti-Ki-67 antibody incubation (37° C., 16 minutes) and washing were followed by secondary antibody incubation with a goat polyclonal anti-rabbit antibody conjugated to AP (37° C.; 12 minutes). After incubating with the AP conjugate the slides were washed with Special Stains wash. Pyridine QMP-biotin (100 μM) (FIG. 21(B)) or DABCO QMP-biotin (100 μM) (FIG. 21(C)) or triethylamine QMP-biotin (100 μM) (FIG. 21(D)) was dissolved in 100 mM CHES, pH 10.0, 0.05% Brij-35 to a final concentration of 100 nM. QMP turnover was achieved by adding 100 μL of AP Enhancer followed by 100 μL of biotin labeled QMP and incubating at 37° C. for 16 minutes. The deposited hapten was subsequently bound by streptavidin-HRP conjugate (37° C.; 8 minutes), and visualized via a brown precipitate produced by HRP upon the addition of hydrogen peroxide and DAB (37° C.; 8 minutes). The DAB was toned by the addition of copper sulfate (37° C.; 4 minutes). The stained tissue sections were counterstained with modified Mayer's hematoxylin (37° C.; 4 minutes) and then incubated with Bluing Reagent (37° C.; 4 minutes). They were then dehydrated through a graded ethanol series, cleared with xylene, and manually cover-slipped.
(§1) (b) QMP amplified DAB (FIGS. 22(B)-22(D)). The tissue was deparaffinized and retrieved as described in the general procedures. Rabbit-anti-Ki-67 antibody incubation (37° C., 16 minutes) and washing were followed by secondary antibody incubation with a goat polyclonal anti-rabbit antibody conjugated to AP (37° C.; 12 minutes). After incubating with the AP conjugate the slides were washed with Special Stains wash. Monofluoro QMP-biotin (400 nM) (FIG. 22(B)) or acetate QMP-biotin (100 μM) (FIG. 22(C)) or methoxy QMP-biotin (100 μM) (FIG. 22(D)) was dissolved in 100 mM CHES, pH 10.0, 0.05% Brij-35 to a final concentration of 100 nM. QMP turnover was achieved by adding 100 μL of AP Enhancer followed by 100 μL of biotin labeled QMP and incubating at 37° C. for 16 minutes. The deposited biotin was subsequently bound by a streptavidin-HRP conjugate (37° C.; 8 minutes), and visualized via a brown precipitate produced by HRP upon the addition of hydrogen peroxide and DAB (37° C.; 8 minutes). The DAB was toned by the addition of copper sulfate (37° C.; 4 minutes). The stained tissue sections were counterstained with modified Mayer's hematoxylin (37° C.; 4 minutes) and then incubated with Bluing Reagent (37° C.; 4 minutes). They were then dehydrated through a graded ethanol series, cleared with xylene, and manually cover-slipped.

[2] = system: Bcl2 on FFPE tonsil tissue; test: HRP DAB amplified by QMP-biotin with different linkers; settings: 100 nM, CHES pH 10.0, different linkers
Method: as §1, with “The” for “(b) QMP amplified DAB (FIGS. 22(B)-22(D)). The”, “Mouse-anti-Bcl-2” for “Rabbit-anti-Ki-67”, “anti-mouse” for “anti-rabbit”, “(with aniline amide (FIG. 23(A)), benzoic amide (FIG. 23(B)) or tyramide amide linker (FIG. 23(C)) (100” for “(400”, “nM)” for “nM) (FIG. 22(B)) or acetate QMP-biotin (100 μM) (FIG. 22(C)) or methoxy QMP-biotin (100 μM) (FIG. 22(D))”

[3] = system: BCL6 on FFPE tonsil tissue; test: AP-based CARD IHC with biotinylated QM precursor followed by DAB detection
Method: Detection 1—HRP DAB. After incubating with the AP conjugate the slides were washed with Special Stains wash (VMSI #860-015). QMP reagents were dissolved in 100 mM CHES (3-cyclo-hexylamino-ethylsulfonic acid), pH 10.0, 0.05% Brij-35. QMP turnover was achieved by adding 100 μL of AP Enhancer (VMSI #253-2182) followed by 100 μL of hapten labeled QMP and incubating at 37° C. for 16 minutes. Compound 29 is an exemplary hapten-QMP that could be used according to this method. The deposited hapten was subsequently bound by a mouse-anti-hapten-HRP conjugate (or streptavidin-HRP) (37° C.; 8 minutes), and visualized via a brown precipitate produced by HRP upon the addition of hydrogen peroxide and DAB (37° C.; 8 minutes). The DAB was toned by the addition of copper sulfate (37° C.; 4 minutes). The stained tissue sections were counterstained with modified Mayer's hematoxylin (Hematoxylin II, VMSI #790-2208) (37° C.; 4 minutes) and then incubated with Bluing Reagent (VMSI #760-2037) (37° C.; 4 minutes). The slides were then dehydrated through a graded ethanol series, cleared with xylene, and manually cover-slipped.
Both compounds utilize fluoride as the leaving group, but the reactivity of the QM derived from difluoro compound 58 should be considerably lower than monofluoro 7 due to the electronic stabilization offered by the geminal fluorine atom. […] Therefore, the difluoro QM precursor compound 58 was evaluated first for IHC staining performance on FFPE tissue using the nuclear marker BCL6 on FFPE tonsil tissue as a model system. The biotin-labeled difluoro QM precursor successfully bound to the sample as evidenced by subsequent biotin visualization using diaminobenzidine (DAB) detection. FIG. 18 provides microphotographs illustrating the detection level at varying concentrations of the difluoro QM precursor in a Tris buffer at pH=8.5 (panel A—DAB control, panel B—1 μM, panel C—10 μM and panel D—20 μM). In addition, significant amplification of signal was observed compared to the DAB control sample when on-slide concentrations of difluoro QM precursor compound 58 greater than […] were utilized.
To test the effect of pH on signal diffusion, difluoro QM precursor compound 58 was deposited as before at various pH levels within the working range for AP (7-12 with two shoulders of maximal activity at pH=8.5 and 11). The nuclear marker BCL6 on FFPE tonsil tissue was again chosen as the model. Positive staining was observed across the entire pH range, although a balance between overall signal and diffusion was seen. FIG. 19, panels A-H provide microphotographs of the detection levels of 20 µM QM precursor in Tris buffer with varying pH: panel A—DAB control; panel B pH=7.0; panel C pH=8.0; panel D pH=8.5; panel E pH=9.0; panel F pH=10.0; panel G pH=11.0; panel H pH=12.0. The diffusion appears to decrease with increasing pH. […] The level of amplification increased only as the pH rose to 8.5 and then decreased gradually over the rest of the range. This effect may be due to a combination of enzyme activity and the population of QM quenchers in the reaction media. At pH levels well below the optimal AP reaction conditions (7.0), the activity of AP was depressed, resulting in low signal. As the pH increased (8.0-8.5) but remained near the pKa of Tris (8.1), the activity of AP increased at a faster rate than the population of quenchers in the reaction media, leading to a significant increase in signal. Raising the pH further (9-10) increased the quencher population while decreasing AP activity, resulting in a decrease of signal. Although AP had maximal activity at pH 11 in Tris, a slight decrease in staining intensity was observed, most likely due to the excessively high population of quenchers that could not be overcome by the increased AP activity (raising the pH from 8.5 to 11 increases [Tris base] about 50%, with AP activity increasing by only about 20%). […]

[4] = Accelerated stability study in Buffer A (50/50 DMSO and 10 mM glycine buffer pH 2.0); type: physicochemical; settings: 20-25 °C
Method: With an understanding of the degradation pathways and characteristics, a solvent system was designed for the purpose of extending shelf-life of QMP compounds. […] At elevated temperature the degradation pathway described in FIG. 3C was still observed. However, at normal storage conditions (2-25° C.) the rate of decomposition of the QMP is reduced compared to 100% aqueous systems.

Structure (SMILES): CC(=O)OCc1cc(NC(=O)CCCCCNC(=O)CCCCC2SCC3NC(=O)NC32)ccc1OP(=O)(O)O (centres unmarked) [acetate QMP-biotin, 5-(6-(5-(2-oxohexahydro-1H-thieno[3,4-d]imidazol-4-yl)pentanamido)hexanamido)-2-(phosphonooxy)benzyl acetate]
signal resolution and intensity compared to the control slide [1]: weak, very diffuse signal

Structure (SMILES): O=C(CCCCC1SCC2NC(=O)NC21)NCCc1ccc(OP(=O)(O)O)c(CF)c1 (centres unmarked) [Compound 14, 2-(fluoromethyl)-4-(2-(5-(2-oxohexahydro-1H-thieno[3,4-d]imidazol-4-yl)pentanamido)ethyl)phenyl dihydrogen phosphate]
signal resolution [2]: well resolved signals

Structure (SMILES): O=C(CCCCC1SCC2NC(=O)NC21)NCCCCCC(=O)Nc1ccc(OP(=O)(O)O)c(C(F)F)c1 (centres unmarked) [Compound 58]
diffusion at the upper end of the pH range ([3]; Tris buffer, pH 7-12): still too great to be of clinical use for IHC
on-slide concentration at which significant amplification of signal was observed compared to the DAB control ([3]; Tris buffer, pH=8.5): greater than 20 μM
diffusion of signal, off-target staining ([3]; Tris buffer, pH=8.5, 1-20 μM, all cases): increased diffusion of signal
concentration required to give the desired level of amplification ([3]; pH 8.5 in Tris buffer): 20 µM

Structure (SMILES): O=C(CCCCC1SCC2NC(=O)NC21)NCCCCCC(=O)Nc1ccc(OP(=O)(O)O)c(CF)c1 (centres unmarked) [Monofluoro QMP-biotin]
signal resolution and intensity compared to the control slide [1]: well resolved signal with greater or equal intensity to the control slide

Structure (SMILES): O=C(CCCCC1SCC2NC(=O)NC21)NCCCCCC(=O)Nc1ccc(OP(=O)(O)O)c(C[n+]2ccccc2)c1 (centres unmarked) [pyridine QMP-biotin, 1-(5-(6-(5-(2-oxohexahydro-1H-thieno[3,4-d]imidazol-4-yl)pentanamido)hexanamido)-2-(phosphonooxy)benzyl)pyridin-1-ium]
staining intensity and signal diffusion compared to the control slide [1]: much lower staining intensity and greatly diffuse signals

QMP remaining ([4]; 0.0 days): 99.9%
QMP remaining ([4]; 1.0 days): 99.8%
QMP remaining ([4]; 4.0 days): 95.4%
QMP remaining ([4]; 8.0 days): 95.6%
QMP remaining ([4]; 10.0 days): 95.7%
QMP remaining ([4]; 14.0 days): 95.1%
QMP remaining ([4]; 17.0 days): 95.8%
QMP remaining ([4]; 25.0 days): 95.5%
QMP remaining ([4]; 36.0 days): 94%
Structure (SMILES): CN1/C(=C/C=C/C=C/C2=[N+](CCCCCC(=O)NCCCCCCNC(=O)C(F)c3ccccc3OP(=O)(O)O)c3ccccc3C2(C)C)C(C)(C)c2ccccc21.[Cl-] (centres unmarked) [28(D)]

Structure (SMILES): COCc1cc(NC(=O)CCCCCNC(=O)CCCCC2SCC3NC(=O)NC32)ccc1OP(=O)(O)O (centres unmarked) [methoxy QMP-biotin, 2-(methoxymethyl)-4-(6-(5-(2-oxohexahydro-1H-thieno[3,4-d]imidazol-4-yl)pentanamido)hexanamido)phenyl dihydrogen phosphate]
signal resolution and intensity compared to the control slide [1]: well resolved signal but with low intensity

Structure (SMILES): CC[N+](CC)(CC)Cc1cc(NC(=O)CCCCCNC(=O)CCCCC2SCC3NC(=O)NC32)ccc1OP(=O)(O)O (centres unmarked) [triethylamine QMP-biotin, N,N-diethyl-N-(5-(6-(5-(2-oxohexahydro-1H-thieno[3,4-d]imidazol-4-yl)pentanamido)hexanamido)-2-(phosphonooxy)benzyl)ethanaminium]
staining intensity and signal diffusion compared to the control slide [1]: much lower staining intensity and greatly diffuse signals

QMP remaining ([4]; 0.0 days): 100%
QMP remaining ([4]; 1.0 days): 100%
QMP remaining ([4]; 4.0 days): 100%
QMP remaining ([4]; 8.0 days): 100%
QMP remaining ([4]; 10.0 days): 100%
QMP remaining ([4]; 14.0 days): 100%
QMP remaining ([4]; 17.0 days): 100%
QMP remaining ([4]; 25.0 days): 97.8%
QMP remaining ([4]; 36.0 days): 96.7%
Structure (SMILES): CN(C)c1ccc(N=Nc2ccc(S(=O)(=O)NCCOCCOCCOCCOCCOCCOCCOCCOCCC(=O)NCCCCCCNC(=O)C(F)c3ccccc3OP(=O)(O)O)cc2)cc1 (centres unmarked) [28(C)]

Structure (SMILES): O=C(CCCCC1SCC2NC(=O)NC21)NCCCCCC(=O)Nc1ccc(OP(=O)(O)O)c(C[N+]23CCN(CC2)CC3)c1 (centres unmarked) [DABCO QMP-biotin, 1-(5-(6-(5-(2-oxohexahydro-1H-thieno[3,4-d]imidazol-4-yl)pentanamido)hexanamido)-2-(phosphonooxy)benzyl)-1,4-diazabicyclo[2.2.2]octan-1-ium]
staining intensity and signal diffusion compared to the control slide [1]: much lower staining intensity and greatly diffuse signals
